# Reference: patent US5843481A, “Treatment of proliferative disorders, metastasaes, and drug resistant tumors with vanadate compounds and derivatives or analogues thereof” (priority 1994, dated 1998)
# “Also recorded” adds a separate entry of the source.
# What was measured:
# MDAY-D2 [1] = assay: MDAY-D2 tumor growth in mice, three vanadyl compounds, Example 6B; format: in vivo; settings: for effect on tumor growth, in words: 10 mg/ml s.c. daily; for animals that died: 10 mg/ml, 50 μl s.c. daily for 16 days, groups of five mice
# Excerpt: (§1) In order to examine the ability of vanadyl compounds to reduce tumor formation, growth and metastases, a specific animal model which allows investigation of all of these processes in the same animal was chosen. This model involves the injection of a metastatic haematopoietic cell line, MDAY-D2, into mice subcutaneously. These cells form a tumor at the site of injection and its size can be easily determined. In addition, these cells metastasize to the liver and metastases can be detected histologically after day 17 to 19. This model provides a very sensitive and reproducible approach to investigate the effect of vanadyl compounds on tumor growth and metastases.
# In a separate experiment using the same animal model, the effect of orthovanadate, vanadyl sulphate and vanadyl hydroperoxide administration on tumor growth in vivo was examined. On Day 1, 20 mice were injected with 2×10^5 MDAY-D2 cell subcutaneously. The mice were divided into four groups of five mice. At day 5, the animals were injected subcutaneously with 50 μl of water alone or containing 10 mg/ml of orthovanadate, 10 mg/ml of vanadyl sulphate, or 10 mg/ml of vanadyl hydroperoxide. This treatment was continued daily for 16 days. At day 21, the mice were sacrificed and the tumors dissected and weighed.
# MDAY-D2 cells = assay: Viability of MDAY-D2 cells with different vanadyl compounds; format: cell-based, mouse; settings: 0-50 μM, 48 hours; FIG. 8
# Protocol: Three different forms of vanadyl compounds were examined for their effect on viability of cancer cell lines. MDAY-D2 cells were incubated in media containing 0-50 μM orthovanadate, vanadyl sulphate, or vanadyl hydroperoxide for 48 hours. The cells were harvested and the number of viable cells determined. […] Although there were slight differences in sensitivity, the overall cell death was similar.
# carcinogenesis = settings: reported by G. Shklar et al.; cited from earlier work
# mammary carcinogenesis = settings: dietary; cited from earlier work
# MDAY-D2 [2] = assay: Liver metastases of MDAY-D2 cells in mice (histology), Example 8; format: in vivo
# Excerpt: as §1
# Livers were removed from animals treated as described above and prepared for histological examination. FIG. 16 compares liver sections from untreated (C), orthovanadate (VO)(500 μg/day) and vanadyl sulphate (VS)(500 μg/day) treated animals. Nodules are identified with an arrow.
# [3] = tested on: KB8, KB8-5 and KB85-11 cells; settings: background statement; cited from earlier work
# jun = assay: Northern blot analysis of jun mRNA expression in chondrocytes; format: cell-based, bovine; settings: for jun expression in response to factors such as IL 1 or arachidonic acid: summary statement; for expression of c-jun: stimulation, 1 hour, bovine chondrocytes, AA 3 μM
# Excerpt: (§2) The cytokine interleukin 1 (IL 1) has been used to identify the intermediate second messengers which regulate the expression of fos and jun.
# (§3) Although IL 1 stimulated superoxide production, it was not known whether IL 1 induced fos and jun expression was dependent on the production of superoxides. In order to elucidate this possibility, the effect of DPI on fos and jun mRNA levels induced by IL 1 was investigated. RNA from chondrocytes treated with IL 1 in the presence and absence of DPI were analyzed by Northern blot analysis using either fos or collagenase cDNA probes. […] Similar data has been obtained for IL 1 induced jun expression. Furthermore, inhibition of fos and jun expression by DPI was sufficient to suppress IL 1 induced and constitutive collagenase expression.
# (§4) Bovine articular chondrocytes were isolated and plated as previously described (Kandel R. A. et al. Biochim. Biophys. Acta. 1053, 130-134, 1990). In order to determine the effect of orthovanadate on IL 1 and PMA (phorbol ester) induced responses, chondrocytes were incubated with orthovanadate (100 μM) for 2 hours before stimulation with IL 1 (10 ng/ml) or PMA ([…]). collagenase production was determined by incubating chondrocytes for 24 hours with IL 1 or PMA and the cell conditioned medium was assayed for collagenase activity using an ELISA procedure as described previously (Kandel et al. supra) PLA2 activity was measured by incorporating ^3 H-arachidonic acid (^3 H-AA) into the cells and then incubating the cells with medium containing 1 mg/ml BSA, either alone or in the presence of IL 1 or PMA, for 10 min. as previously described (Conquer, J. A. […], Biochim. Biophys. Acta. 1134, 1-6). The amount of ^3 H-AA liberated into the supernatant was determined. To measure PGE2 production, chondrocytes were incubated for 6 hours in Ham's F12 medium, either alone or with IL 1 or PMA. The supernatant was analyzed by RIA using an antibody specific for PGE2 (Dr. S. A. Jones, Mount Sinai Hospital, Toronto, Can.). In order to examine the expression of c-fos and c-jun, chondrocytes were incubated for 1 hour in the presence of IL-1, PMA or AA (3 μM). Chondrocytes were washed in PBS and the total RNA extracted as previously described (Cruz. et al, 1991, Biochem. J. 277, 327-330). RNA samples were run on formaldehyde agarose gels and transferred to nylon membrane for northern analysis using cDNA probes for c-fos and c-jun.
# MDAY-D2 [4] = assay: MDAY-D2 tumor growth in mice, combination therapy, Example 7; format: in vivo
# Protocol: Twenty mice were injected subcutaneously with 2×10^5 cells on Day 1. At day 4, the mice were divided into four groups of five mice. Group one (control) received subcutaneous injections of 50 μl of water. Group two received daily intraperitoneal injections of 50 μl of 250 mM N-acetylcysteine. Group three received daily subcutaneous injections of 50 μl of 10 mg/ml of orthovanadate. Group four received daily intraperitoneal injections of 50 μl of […] N-acetylcysteine and 20 minutes later received 50 μl of subcutaneous injection of 50 μl of 10 mg/ml of orthovanadate. On day 10 the treatment was stopped. The animals were sacrificed on Day 13 and analyzed for tumor growth.
# fos = assay: Northern blot analysis of fos mRNA expression in chondrocytes; format: cell-based, bovine; settings: for fos expression in response to factors such as IL 1 or arachidonic acid: summary statement; for expression of c-fos: stimulation, 1 hour, bovine chondrocytes, AA 3 μM
# Protocol: as §2
# In order to elucidate this possibility, the effect of DPI on fos and jun mRNA levels induced by IL 1 was investigated. RNA from chondrocytes treated with IL 1 in the presence and absence of DPI were analyzed by Northern blot analysis using either fos or collagenase cDNA probes.
# Since superoxides are rapidly converted to hydrogen peroxide in the cell by superoxide dismutase, whether hydrogen peroxide could mimic the effect of IL 1 in the induction of fos expression was investigated. RNA was extracted from chondrocytes (Kandel et al. supra) treated with H2 O2 for 30, 60 and 90 minutes and examined by Northern blot analysis using a fos cDNA probe.
# as §4
# Cells were also incubated as described above with 20 mM N-acetylcyateine for 20 min. and then incubated with IL 1 for an additional 1 or 12 hours. The RNA was extracted and examined by Northern blot analysis using cDNA probes for c-fos and collagenase.
# superoxides and H2O2 = assay: Levels of superoxides and H2O2 in cells (conclusion of Example 1); format: cell-based, bovine; settings: conclusion from results
# Protocol: as §4, with “Chondrocytes were washed in PBS and the total RNA extracted as previously described (Cruz. et al, 1991, Biochem. J. 277, 327-330). RNA samples were run on formaldehyde agarose gels and transferred to nylon membrane for northern analysis using cDNA probes for c-fos and c-jun.” left out
# collagenase [5] = assay: Northern blot analysis of collagenase mRNA expression in chondrocytes; format: cell-based, bovine
# Excerpt: as §2, §3
# Cells were also incubated as described above with 20 mM N-acetylcyateine for 20 min. and then incubated with IL 1 for an additional 1 or 12 hours. The RNA was extracted and examined by Northern blot analysis using cDNA probes for c-fos and collagenase. N-acetylcysteine which is converted to GSH intracellularly was also found to reduce the levels of fos and collagenase expression in response to IL 1 (FIG. 5). Presumably the higher intracellular levels of GSH reduced H2 O2 and superoxide levels and suppressed the induction of fos and collagenase expression.
# [6] = tested on: Chondrocytes (reactive oxygen intermediates; NADPH oxidase); assay: FACS analysis of reactive oxygen intermediates/superoxide production in chondrocytes (dihydroxyrhodamine); format: cell-based, bovine; settings: inhibition, FIG. 1
# Protocol: Chondrocytes (i.e. bovine chondrocytes plated as described in Kandel R. A. et al. Biochim. Biophys. Acta. 1053, 130-134, 1990) were incubated with dihydroxyrhodamine for 5 min (DHR) or for 4 hours in the absence (-IL 1 ) or presence of IL 1 (+IL 1), or in the presence of both IL 1 and the NADPH inhibitor, diphenyl iodonium, (+IL 1, +DPI).
# PGE2 = PGE2 production by chondrocytes (RIA); format: cell-based, bovine; settings: stimulation, 6 hours, monolayer culture
# Protocol: as §4, with “Chondrocytes were washed in PBS and the total RNA extracted as previously described (Cruz. et al, 1991, Biochem. J. 277, 327-330). RNA samples were run on formaldehyde agarose gels and transferred to nylon membrane for northern analysis using cDNA probes for c-fos and c-jun.” left out
# PLA2 = assay: 3H-arachidonic acid release by chondrocytes (PLA2 activity); format: cell-based, bovine; settings: stimulation, IL 1 10 ng/ml or PMA 100 mg/ml, 10 min
# Protocol: as §4, with “Chondrocytes were washed in PBS and the total RNA extracted as previously described (Cruz. et al, 1991, Biochem. J. 277, 327-330). RNA samples were run on formaldehyde agarose gels and transferred to nylon membrane for northern analysis using cDNA probes for c-fos and c-jun.” left out
# collagenase [7] = assay: Collagenase production by chondrocytes (ELISA of conditioned medium); format: cell-based, bovine; settings: stimulation, 24 hours, monolayer culture
# Protocol: as §4, with “Chondrocytes were washed in PBS and the total RNA extracted as previously described (Cruz. et al, 1991, Biochem. J. 277, 327-330). RNA samples were run on formaldehyde agarose gels and transferred to nylon membrane for northern analysis using cDNA probes for c-fos and c-jun.” left out
# cells = assay: Combined effect of H2O2 and orthovanadate on cell toxicity; format: cell-based; settings: 1 mM H2O2, 24 hours; FIG. 9
# Protocol: If the orthovanadate induced formation of hydroxyl radicals is responsible for cell toxicity, then adding exogenous H2 O2 should enhance the effects of orthovanadate. Accordingly, cells were incubated in media alone or containing 1 mM H2 O2 or 10 μM orthovanadate or both for 24 hours. The cells were harvested and cell viability determined.
# [8] = 20 mM N-acetylcysteine for 20 min, FIG. 5
compound,measurement,setting,value
vanadyl hydroperoxide,"effect on tumor growth, in words",MDAY-D2 [1],too toxic to evaluate its efficacy
same,animals that died,MDAY-D2 [1],all five died
same,effectiveness in killing MDAY-D2 cells,MDAY-D2 cells,equally effective
"O=C1O[C@H]([C@@H](O)CO)C(O)=C1O [vitamin C, ascorbic acid]",anticancer activity,carcinogenesis,reported to have anticancer activity
Cc1c(C)c2c(c(C)c1O)CCC(C)(CCCC(C)CCCC(C)CCCC(C)C)O2 (stereo not drawn) [α-tocopherol],anticancer activity,carcinogenesis,reported to have anticancer activity
N[C@@H](CCC(=O)N[C@@H](CS)C(=O)NCC(=O)O)C(=O)O [glutathione],anticancer activity,carcinogenesis,reported to have anticancer activity
CC1=C(/C=C/C(C)=C/C=C/C(C)=C/C=C/C=C(C)/C=C/C=C(C)/C=C/C2=C(C)CCCC2(C)C)C(C)(C)CCC1 [β-carotene],anticancer activity,carcinogenesis,reported to have anticancer activity
O=S(=O)([O-])[O-].[O]=[V+2] [vanadyl sulphate],"effect on tumor growth, in words",MDAY-D2 [1],reduced tumors size in all of the animals; also recorded: less effective
same,animals that died,MDAY-D2 [1],One animal died
same,inhibition of chemically induced mammary carcinogenesis,mammary carcinogenesis,inhibit
same,levels of metastases in liver,"MDAY-D2 [2]; 500 μg/day, FIG. 16",did not have detectable levels of metastases
same,effectiveness at preventing metastases,"MDAY-D2 [2]; preliminary results, liver histology",effective at preventing metastases
same,effectiveness in killing MDAY-D2 cells,MDAY-D2 cells,equally effective
CC[C@]1(O)C[C@@H]2CN(CCc3c([nH]c4ccccc34)[C@@](C(=O)OC)(c3cc4c(cc3OC)N(C)[C@H]3[C@@](O)(C(=O)OC)[C@H](OC(C)=O)[C@]5(CC)C=CCN6CC[C@]43[C@@H]65)C2)C1 [vinblastine],killing of drug resistant cell lines by conventional chemotherapeutic agents,[3],not killed
vitamin E,anticancer activity,carcinogenesis,reported to have anticancer activity
COc1cc2c(c(OC)c1OC)-c1ccc(OC)c(=O)cc1[C@@H](NC(C)=O)CC2 [colchicine],killing of drug resistant cell lines by conventional chemotherapeutic agents,[3],not killed
CC(=O)N[C@@H](CS)C(=O)O [N-acetylcysteine],jun expression in response to factors such as IL 1 or arachidonic acid,jun,completely inhibit
same,effect on slight toxic effects observed with orthovanadate alone,MDAY-D2 [4]; N-acetylcysteine co-administered,appeared to reduce the slight toxic effects
same,"tumor growth inhibition in vivo, in words",MDAY-D2 [4]; combination therapy,capable of reducing tumor growth to some extent
same,levels of fos expression in response to IL 1,fos; [8],reduce
same,fos expression in response to factors such as IL 1 or arachidonic acid,fos,completely inhibit
same,levels of superoxides and H2O2 in cells,superoxides and H2O2,indirectly reduce
same,levels of collagenase expression in response to IL 1,collagenase [5]; [8],reduce
"c1ccc([I+]c2ccccc2)cc1 [diphenyl iodonium (DPI), diphenyl iodonium]",jun expression in response to factors such as IL 1 or arachidonic acid,jun,completely inhibit
same,constitutive and IL 1 induced reactive oxygen intermediates,[6],completely inhibits
same,IL 1 induction of fos,"fos; Northern blot, FIG. 2",suppressed
same,fos expression in response to factors such as IL 1 or arachidonic acid,fos,completely inhibit
same,IL 1 induced and constitutive collagenase expression,"collagenase [5]; Northern blot, FIG. 2",suppress
COc1cccc2c1C(=O)c1c(O)c3c(c(O)c1C2=O)C[C@@](O)(C(=O)CO)C[C@@H]3O[C@H]1C[C@H](N)[C@H](O)[C@H](C)O1 [doxorubicin],killing of drug resistant cell lines by conventional chemotherapeutic agents,[3],not killed
"CCCCC/C=C\C/C=C\C/C=C\C/C=C\CCCC(=O)O [AA, arachidonic acid]",expression of c-jun,jun,stimulated
same,expression of c-fos,fos,stimulated
"CCCCCCCCCCCCCC(=O)OC1C(C)C2(O)C(C=C(CO)CC3(O)C(=O)C(C)=CC32)C2C(C)(C)C12OC(C)=O (centres unmarked) [PMA, reference compound]",expression of c-jun,jun,stimulated
same,production of PGE2,PGE2,induced
same,expression of c-fos,fos,stimulated
same,release of 3H-AA,PLA2,induced
same,production of collagenase,collagenase [7],induced
"OO [H2 O2, hydrogen peroxide]",stimulation of fos expression,"fos; H2O2 for 30, 60 and 90 minutes, FIG. 3",stimulates
same,cell toxicity of H2O2 alone,cells,small effect
